From US20240166669A1, “QUINAZOLINE AMINE DERIVATIVES AS KRAS INHIBITORS” (Nikang Therapeutics, Inc., priority 2021, published 2024)

Assays:
K-Ras G12D [1] = target: T1, K-Ras G12D (Homo sapiens, UniProt P01116, G12D); assay: p-ERK Cellular 1-Plate Assay (Biological Example 3); format: cell-based; settings: AGS cells (KRAS G12D), 3 h treatment, AlphaLISA p-ERK1/2, 1-plate; Biological Example 3 (values marked *); read-out: AGS PERK EC50
T1 construct: AGS (Cobioer, CBP60476) cell lines which harbor KRAS G12D mutation; host or cells: AGS
T1 sequence (P01116 1-188 isoform P01116-2 G12D): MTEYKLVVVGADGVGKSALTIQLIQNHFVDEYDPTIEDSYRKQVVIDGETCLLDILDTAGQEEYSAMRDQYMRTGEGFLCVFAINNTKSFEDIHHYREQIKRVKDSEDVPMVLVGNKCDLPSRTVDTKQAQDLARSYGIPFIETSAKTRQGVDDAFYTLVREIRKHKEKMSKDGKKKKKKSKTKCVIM
Method: (§1) The ability of the compound of Formula (IIA′), (II′), or (II) or a pharmaceutically acceptable salt thereof (test compound) to inhibit K-Ras G12D activity was tested using AGS (Cobioer, CBP60476) cell lines which harbor KRAS G12D mutation as described below.
(§2) AGS (Cobioer, CBP60476) were seeded in 384-well plates and cultured overnight (5,000 cells per well, 40 μl total volume). The following morning, cells were treated with test compound, with starting concentration at 10 μM and 3-fold dilution down to 0.5 nM for 3 h at 3° C. DMSO treatment served as control. pERK was then measured using AlphaLISA SureFire Ultra p-ERK/2 (Thr202/Tyr204) Assay Kit (Perkin Elmer, cat #ALSU-PERK) following the manufacturer's instruction as follows.
Briefly, the culture medium was removed and 10 μl 1× lysis buffer was added to each well, followed by 10 minutes incubation on a plate shaker at room temperature. Acceptor mixture was prepared according to manufacturer's instruction. 5 μl acceptor mixture was added to the cell lysate and the plate was wrapped with foil, spun at 500 rpm for 10s and incubated at RT for 60 min. Donor mixture was prepared under subdued light. 5 μl donor mixture was added to the cell lysate and the plate was spun at 500 rpm for 10s and incubated at RT for another 60 min. in the dark.

K-Ras G12D [2] = target: T1, K-Ras G12D; assay: p-ERK Cellular 2-Plate Assay (Biological Example 2); format: cell-based; settings: AGS cells (KRAS G12D), 3 h treatment, AlphaLISA p-ERK1/2, 2-plate; Biological Example 2 (unmarked values); read-out: AGS PERK EC50
Method: as §1
as §2, with “(10.000” for “(5,000”, “well” for “well,”, “staring” for “starting”, “37° C.,” for “3° C.”, “p-ERK” for “pERK”, “p-ERK1/2” for “p-ERK/2”
Briefly, the culture medium was removed and 20 μl 1× lysis buffer was added to each well, followed by 30 minutes incubation on a plate shaker at room temperature. Then 10 μl of lysate was transferred to a white 384-well plate. Acceptor mixture was prepared according to manufacturer's instruction. 5 μl acceptor mixture was added to the cell lysate and the plate was wrapped with foil, spun at 500 rpm for 10 s, and incubated at RT for 60 min. Donor mixture was prepared under subdued light. 5 μl donor mixture was added to the cell lysate and the plate was spun at 500 rpm for 10s and incubated at RT for another 60 min. in the dark. Signal was then measured on a EnVision 2105 multimode plate reader. Percentage inhibition was calculated with DMSO treatment as 100% of signal, and IC50 was calculated by XLfit 5.5.x.

| Compound | EC50 (K-Ras G12D [1]) [nM] | EC50 (K-Ras G12D [2]) [nM] |
| --- | --- | --- |
| C#Cc1cccc2cc(O)cc(-c3ncc4c(N5CC6CCC(C5)N6)nc(OCC56CCCN5Cc5ccncc56)nc4c3F)c12 (stereo not drawn) [Example 32, 4-(4-(3,8-diazabicyclo[3.2.1]octan-3-yl)-2-((8,9-dihydro-5H-pyrido[3,4-a]pyrrolizin-9a(7H)-yl)methoxy)-8-fluoropyrido[4,3-d]pyrimidin-7-yl)-5-ethynylnaphthalen-2-ol] | – | 6 |
| C#Cc1cccc2cc(O)cc(-c3ncc4c(N5C[C@H]6CC[C@@H](C5)N6)nc(OCC56CCCN5Cc5c(OC)cccc56)nc4c3F)c12 (stereo partly drawn) [Example 29, 4-(4-((1R,5S)-3,8-diazabicyclo-[3.2.1]octan-3-yl)-8-fluoro-2-((6-methoxy-2,3-dihydro-1H-pyrrolo[2,1-a]-isoindol-9b(5H)-yl)methoxy)-pyrido[4,3-d]-pyrimidin-7-yl)-5-ethynylnaphthalen-2-ol] | – | 2 |
| C#Cc1cccc2cc(O)cc(-c3ncc4c(N5CC6CCC(C5)N6)nc(OCC56CCCN5CC(=CC)C6)nc4c3F)c12 (stereo not drawn) [Example 15] | – | 0.1 |
| C#Cc1cccc2cc(O)cc(-c3ncc4c(N5C[C@H]6CC[C@@H](C5)N6)nc(OCC56CCCN5Cc5cc(OC)ccc56)nc4c3F)c12 (stereo partly drawn) [Example 30, 4-(4-((1R,5S)-3,8-diazabicyclo-[3.2.1]octan-3-yl)-8-fluoro-2-((7-methoxy-2,3-dihydro-1H-pyrrolo[2,1-a]isoindol-9b(5H)-yl)methoxy)-pyrido[4,3-d]-pyrimidin-7-yl)-5-ethynylnaphthalen-2-ol] | – | 4 |
| C#Cc1cccc2cc(O)cc(-c3ncc4c(N5CC6CCC(C5)N6)nc(OC[C@@]56CCCN5[C@@H]5CCOCC5C6)nc4c3F)c12 (mixture of isomers) [Example 23] | – | 0.48 |
| C#Cc1cccc2cc(O)cc(-c3ncc4c(N5CC6CCC(C5)N6)nc(OCC56CCCN5Cc5cnccc56)nc4c3F)c12 (stereo not drawn) [Example 31, 4-(4-(3,8-diazabicyclo[3.2.1]octan-3-yl)-2-((6,7-dihydro-5H-pyrido[4,3-a]pyrrolizin-4b(9H)-yl)methoxy)-8-fluoropyrido[4,3-d]pyrimidin-7-yl)-5-ethynylnaphthalen-2-ol] | – | 4.1 |
| C#Cc1c(F)ccc2cccc(-c3ncc4c(N5C[C@H]6CC[C@@H](C5)N6)nc(OCC56CCCN5CC(=C)C6)nc4c3F)c12 (stereo partly drawn) [Example 11, 4-((1R,5S)-3,8-diazabicyclo[3.2.1]octan-3-yl)-7-(8-ethynyl-7-fluoronaphthalen-1-yl)-8-fluoro-2-((2-methylenetetrahydro-TH-pyrrolizin-7a(5H)-yl)methoxy)pyrido[4,3-d]pyrimidine] | – | 7 |
| C#Cc1cccc2cc(O)cc(-c3ncc4c(N5CC6CCC(C5)N6)nc(OC[C@]56CCCN5[C@H]5c7ccnn7CC5C6)nc4c3F)c12 (mixture of isomers) [Example 37] | – | 6.6 |
| C#Cc1cccc2cc(O)cc(-c3ncc4c(N5C[C@H]6CC[C@@H](C5)N6)nc(OCC56CCCN5CC(=C)C6)nc4c3F)c12 (stereo partly drawn) [Example 1, 4-(4-((1R,5S)-3,8-diazabicyclo[3.2.1]octan-3-yl)-8-fluoro-2-((2-methylene-tetrahydro-1H-pyrrolizin-7a(5H)-yl)methoxy)pyrido[4,3-d]pyrimidin-7-yl)-5-ethynyl-naphthalen-2-ol] | – | 0.2 |
| C#Cc1cccc2cc(O)cc(-c3ncc4c(N5C[C@H]6CC[C@@H](C5)N6)nc(OCC56CCCN5CC(=CF)C6)nc4c3F)c12 (stereo partly drawn) [Example 2, 4-(4-((1R,5S)-3,8-diazabicyclo[3.2.1]octan-3-yl)-8-fluoro-2-((2-(fluoro-methylene)tetrahydro-1H-pyrrolizin-7a(5H)-yl)methoxy)pyrido[4,3-d]pyrimidin-7-yl)-5-ethynylnaphthalen-2-ol] | – | 0.2 |
| C#Cc1cccc2cc(O)cc(-c3ncc4c(N5CC6NC(C5)C5CC65)nc(OCC56CCCN5CCC6)nc4c3F)c12 (stereo not drawn) [Example 9, 5-ethynyl-4-(8-fluoro-2-((tetrahydro-1H-pyrrolizin-7a(5H)-yl)methoxy)-4-(7,9-diazatricyclo[3.3.1.02,4]nonan-7-yl)pyrido[4,3-d]pyrimidin-7-yl)naphthalen-2-ol] | – | 253 |
| C#Cc1cccc2cc(O)cc(-c3ncc4c(N5C[C@H]6CC[C@@H](C5)N6)nc(OCC56CCCN5c5ccccc5C6)nc4c3F)c12 (stereo partly drawn) [Example 5, 4-(4-((1R,5S)-3,8-diazabicyclo[3.2.1]octan-3-yl)-2-((2,3-dihydro-1H-pyrrolo[1,2-a]-indol-9a(9H)-yl)methoxy)-8-fluoropyrido[4,3-d]pyrimidin-7-yl)-5-ethynylnaphthalen-2-ol] | – | 320 |
| C#Cc1cccc2cc(O)cc(-c3ncc4c(N5C[C@H]6CC[C@@H](C5)N6)nc(OCC56CCCN5Cc5c6cnn5C)nc4c3F)c12 (stereo partly drawn) [Example 36, 4-(4-((1R,5S)-3,8-diazabicyclo[3.2.1]octan-3-yl)-8-fluoro-2-((1-methyl-1,5,6,8-tetrahydropyrazolo[4,3-a]pyrrolizin-3b(4H)-yl)methoxy)pyrido[4,3-d]pyrimidin-7-yl)-5-ethynylnaphthalen-2-ol] | – | 5.2 |
| C#Cc1cccc2cc(O)cc(-c3ncc4c(N5C[C@H]6CC[C@@H](C5)N6)nc(OCC56CCCN5Cc5ccccc56)nc4c3F)c12 (stereo partly drawn) [Example 6, 4-(4-((1R,5S)-3,8-diazabicyclo[3.2.1]octan-3-yl)-2-((2,3-dihydro-1H-pyrrolo[2,1-a]-isoindol-9b(5H)-yl)methoxy)-8-fluoropyrido[4,3-d]pyrimidin-7-yl)-5-ethynylnaphthalen-2-ol] | – | 0.6 |

Next, values leading:

| EC50 (K-Ras G12D [1]) [nM] | EC50 (K-Ras G12D [2]) [nM] | Compound |
| --- | --- | --- |
| 18 | – | C#Cc1c(F)ccc2cc(O)cc(-c3ncc4c(N5C[C@H]6CC[C@@H](C5)N6)nc(OCC56CCCCN5CC(=C)C6)nc4c3F)c12 (stereo partly drawn) [Example 43, 4-(4-((1R,5S)-3,8-diazabicyclo[3.2.1]octan-3-yl)-8-fluoro-2-((2-methylenehexahydroindolizin-8a(1H)-yl)methoxy)pyrido[4,3-d]pyrimidin-7-yl)-5-ethynyl-6-fluoronaphthalen-2-ol] |
| 213 | – | C#Cc1c(F)ccc2cccc(-c3ncc4c(N5C[C@H]6CC[C@@H](C5)N6)nc(OCC56CCCN5CC(=C)CC6)nc4c3F)c12 (stereo partly drawn) [Example 50, 4-((1R,5S)-3,8-diazabicyclo[3.2.1]octan-3-yl)-7-(8-ethynyl-7-fluoronaphthalen-1-yl)-8-fluoro-2-((6-methylenehexahydroindolizin-8a(1H)-yl)methoxy)-pyrido[4,3-d]pyrimidine] |
| 836 | – | C#Cc1c(F)ccc2cccc(-c3ncc4c(N5C[C@H]6CC[C@@H](C5)N6)nc(OCC56CCCCN5CC(=C)C6)nc4c3F)c12 (stereo partly drawn) [Example 51, 4-((1R,5S)-3,8-diazabicyclo[3.2.1]octan-3-yl)-7-(8-ethynyl-7-fluoronaphthalen-1-yl)-8-fluoro-2-((2-methylenehexahydroindolizin-8a(1H)-yl)methoxy)pyrido[4,3-d]pyrimidine] |
| – | 3.6 | C#Cc1cccc2cc(O)cc(-c3ncc4c(N5C[C@H]6CC[C@@H](C5)N6)nc(OC[C@@]56CC7COc8ccccc8C7N5C[C@H](F)C6)nc4c3F)c12 (stereo partly drawn) [Example 40, 4-(4-((1R,5S)-3,8-diazabicyclo[3.2.1]octan-3-yl)-8-fluoro-2-(((9R)-9-fluoro-6a,9,10,11a-tetrahydro-6H,7H-chromeno[3,4-b]pyrrolizin-7a(8H)-yl)methoxy)pyrido[4,3-d]pyrimidin-7-yl)-5-ethynylnaphthalen-2-ol] |
| – | 1.3 | C#Cc1cccc2cc(O)cc(-c3c(Cl)cc4c(N5C[C@H]6CC[C@@H](C5)N6)nc(OCC56CCCN5CC(=C)C6)nc4c3F)c12 (stereo partly drawn) [Example 56, 4-(4-((1R,5S)-3,8-diazabicyclo[3.2.1]octan-3-yl)-6-chloro-8-fluoro-2-((2-methylenetetrahydro-1H-pyrrolizin-7a(5H)-yl)methoxy)quinazolin-7-yl)-5-ethynylnaphthalen-2-ol] |
| – | 1.1 | C#Cc1cccc2cc(O)cc(-c3ncc4c(N5CC6CCC(C5)N6)nc(OC[C@]56CCCN5[C@H]5c7cccnc7OCC5C6)nc4c3F)c12 (mixture of isomers) [Example 38] |
| – | 0.25 | C#Cc1cccc2cc(O)cc(-c3ncc4c(N5CC6CCC(C5)N6)nc(OC[C@]56CCCN5[C@H]5c7ccccc7OCC5C6)nc4c3F)c12 (mixture of isomers) [Example 39] |
